The record followed here is ChEMBL document CHEMBL5726207, “Substituted N,2-diarylquinoline-4-carboxamides and the use thereof as anti-inflammatory agents” (2019).

In this experiment the target is Prostaglandin F2-alpha receptor (Homo sapiens, UniProt P43088). Description: 470 nm/em. 525 nm in a fluorescence measuring instrument (FLIPR Tetra, MolecularDevices) for 120 seconds. It counts as cell-based.

The structures appear in SMILES notation. Several values for one entry are separate records, joined by “and”; a condition that tells them apart may be missing. Identical values can stand only once.

Prostaglandin F2-alpha receptor, sequence (P43088 whole entry): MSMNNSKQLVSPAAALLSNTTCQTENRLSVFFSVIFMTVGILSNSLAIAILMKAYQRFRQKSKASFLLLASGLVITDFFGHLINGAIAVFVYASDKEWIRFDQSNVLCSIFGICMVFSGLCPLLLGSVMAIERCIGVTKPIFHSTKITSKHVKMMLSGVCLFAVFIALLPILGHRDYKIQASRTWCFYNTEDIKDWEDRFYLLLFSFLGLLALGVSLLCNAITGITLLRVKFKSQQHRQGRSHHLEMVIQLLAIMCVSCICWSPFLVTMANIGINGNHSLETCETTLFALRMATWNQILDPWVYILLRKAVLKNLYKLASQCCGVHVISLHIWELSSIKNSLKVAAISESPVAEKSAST

In the case of `Cc1c(-c2ccccc2)nc2ccc(Br)cc2c1C(=O)Nc1ccc(C(=O)O)cc1F`, the IC50 was 53 nM and 47 nM.

As usually defined, the IC50 is the concentration at which inhibition is half-maximal. A high value points to lower potency.
